{"source": "paper PMC9243172", "about": "(Heliyon, 2022)", "key": {"CYP3A4": {"biological_target": "CYP3A4 (Homo sapiens, UniProt P08684)", "sequence (P08684 whole entry)": "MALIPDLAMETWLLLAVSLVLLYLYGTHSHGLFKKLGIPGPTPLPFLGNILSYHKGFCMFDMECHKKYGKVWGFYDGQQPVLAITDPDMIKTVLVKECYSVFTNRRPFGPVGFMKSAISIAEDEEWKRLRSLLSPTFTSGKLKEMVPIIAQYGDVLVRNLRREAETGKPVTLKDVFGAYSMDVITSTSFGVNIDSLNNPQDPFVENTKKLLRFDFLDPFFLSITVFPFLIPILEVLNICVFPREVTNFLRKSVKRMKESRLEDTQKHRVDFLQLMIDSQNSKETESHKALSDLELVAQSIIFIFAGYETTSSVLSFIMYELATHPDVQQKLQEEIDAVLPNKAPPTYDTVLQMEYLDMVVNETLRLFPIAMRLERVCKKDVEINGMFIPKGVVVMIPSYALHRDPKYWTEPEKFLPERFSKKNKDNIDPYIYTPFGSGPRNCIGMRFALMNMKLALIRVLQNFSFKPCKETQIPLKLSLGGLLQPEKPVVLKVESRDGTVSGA", "assay": "Inhibition of CYP3A4", "type": "biochemical"}, "CYP2C9": {"biological_target": "CYP2C9 (Homo sapiens, UniProt P11712)", "sequence (P11712 whole entry)": "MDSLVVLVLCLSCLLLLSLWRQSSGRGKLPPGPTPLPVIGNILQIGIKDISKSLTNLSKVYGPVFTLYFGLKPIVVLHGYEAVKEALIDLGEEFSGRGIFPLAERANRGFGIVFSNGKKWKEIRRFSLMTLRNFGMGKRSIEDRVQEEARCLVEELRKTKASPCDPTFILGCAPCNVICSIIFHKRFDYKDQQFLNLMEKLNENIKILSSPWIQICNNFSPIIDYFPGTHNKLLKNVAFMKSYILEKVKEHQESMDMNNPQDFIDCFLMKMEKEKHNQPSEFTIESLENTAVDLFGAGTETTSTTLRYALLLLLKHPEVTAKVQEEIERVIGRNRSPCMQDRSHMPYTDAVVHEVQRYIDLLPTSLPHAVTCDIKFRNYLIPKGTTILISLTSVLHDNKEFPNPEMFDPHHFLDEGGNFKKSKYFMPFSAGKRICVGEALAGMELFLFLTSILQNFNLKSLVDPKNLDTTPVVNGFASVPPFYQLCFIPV", "assay": "Inhibition of CYP2C9"}, "CYP2D6": {"biological_target": "CYP2D6 (Homo sapiens, UniProt P10635)", "sequence (P10635 whole entry)": "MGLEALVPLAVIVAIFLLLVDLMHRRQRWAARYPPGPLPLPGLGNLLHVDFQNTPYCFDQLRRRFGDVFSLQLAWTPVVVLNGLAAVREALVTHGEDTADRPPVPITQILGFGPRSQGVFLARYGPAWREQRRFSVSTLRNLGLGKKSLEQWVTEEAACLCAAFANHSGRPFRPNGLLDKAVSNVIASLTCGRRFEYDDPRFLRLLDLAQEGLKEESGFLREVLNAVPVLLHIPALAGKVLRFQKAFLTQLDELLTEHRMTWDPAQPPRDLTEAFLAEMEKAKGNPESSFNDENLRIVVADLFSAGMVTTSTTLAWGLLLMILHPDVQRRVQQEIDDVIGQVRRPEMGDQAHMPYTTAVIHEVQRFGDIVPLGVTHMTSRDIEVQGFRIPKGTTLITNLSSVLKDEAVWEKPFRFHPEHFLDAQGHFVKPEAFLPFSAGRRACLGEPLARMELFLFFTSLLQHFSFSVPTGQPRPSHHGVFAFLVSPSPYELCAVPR", "assay": "Inhibition of CYP2D6", "type": "biochemical"}, "CYP1A2": {"biological_target": "T1, CYP1A2 (Homo sapiens, UniProt P05177)", "T1 sequence (P05177 1-516)": "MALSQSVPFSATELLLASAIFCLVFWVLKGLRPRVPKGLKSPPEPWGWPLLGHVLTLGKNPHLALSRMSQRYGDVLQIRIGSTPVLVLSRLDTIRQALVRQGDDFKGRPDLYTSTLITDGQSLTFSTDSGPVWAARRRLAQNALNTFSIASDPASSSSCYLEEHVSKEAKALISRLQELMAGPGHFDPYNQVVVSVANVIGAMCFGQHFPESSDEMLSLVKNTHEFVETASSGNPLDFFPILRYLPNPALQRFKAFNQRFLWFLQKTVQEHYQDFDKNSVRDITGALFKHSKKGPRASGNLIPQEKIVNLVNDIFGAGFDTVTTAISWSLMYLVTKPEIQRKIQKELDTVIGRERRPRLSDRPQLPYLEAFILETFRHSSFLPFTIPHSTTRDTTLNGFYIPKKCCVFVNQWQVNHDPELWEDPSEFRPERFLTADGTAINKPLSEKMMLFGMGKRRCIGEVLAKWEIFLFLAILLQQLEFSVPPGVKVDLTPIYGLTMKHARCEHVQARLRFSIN", "assay": "Inhibition of CYP1A2", "type": "biochemical"}, "P-gp": {"biological_target": "P-gp (Homo sapiens, UniProt P08183)", "sequence (P08183 whole entry)": "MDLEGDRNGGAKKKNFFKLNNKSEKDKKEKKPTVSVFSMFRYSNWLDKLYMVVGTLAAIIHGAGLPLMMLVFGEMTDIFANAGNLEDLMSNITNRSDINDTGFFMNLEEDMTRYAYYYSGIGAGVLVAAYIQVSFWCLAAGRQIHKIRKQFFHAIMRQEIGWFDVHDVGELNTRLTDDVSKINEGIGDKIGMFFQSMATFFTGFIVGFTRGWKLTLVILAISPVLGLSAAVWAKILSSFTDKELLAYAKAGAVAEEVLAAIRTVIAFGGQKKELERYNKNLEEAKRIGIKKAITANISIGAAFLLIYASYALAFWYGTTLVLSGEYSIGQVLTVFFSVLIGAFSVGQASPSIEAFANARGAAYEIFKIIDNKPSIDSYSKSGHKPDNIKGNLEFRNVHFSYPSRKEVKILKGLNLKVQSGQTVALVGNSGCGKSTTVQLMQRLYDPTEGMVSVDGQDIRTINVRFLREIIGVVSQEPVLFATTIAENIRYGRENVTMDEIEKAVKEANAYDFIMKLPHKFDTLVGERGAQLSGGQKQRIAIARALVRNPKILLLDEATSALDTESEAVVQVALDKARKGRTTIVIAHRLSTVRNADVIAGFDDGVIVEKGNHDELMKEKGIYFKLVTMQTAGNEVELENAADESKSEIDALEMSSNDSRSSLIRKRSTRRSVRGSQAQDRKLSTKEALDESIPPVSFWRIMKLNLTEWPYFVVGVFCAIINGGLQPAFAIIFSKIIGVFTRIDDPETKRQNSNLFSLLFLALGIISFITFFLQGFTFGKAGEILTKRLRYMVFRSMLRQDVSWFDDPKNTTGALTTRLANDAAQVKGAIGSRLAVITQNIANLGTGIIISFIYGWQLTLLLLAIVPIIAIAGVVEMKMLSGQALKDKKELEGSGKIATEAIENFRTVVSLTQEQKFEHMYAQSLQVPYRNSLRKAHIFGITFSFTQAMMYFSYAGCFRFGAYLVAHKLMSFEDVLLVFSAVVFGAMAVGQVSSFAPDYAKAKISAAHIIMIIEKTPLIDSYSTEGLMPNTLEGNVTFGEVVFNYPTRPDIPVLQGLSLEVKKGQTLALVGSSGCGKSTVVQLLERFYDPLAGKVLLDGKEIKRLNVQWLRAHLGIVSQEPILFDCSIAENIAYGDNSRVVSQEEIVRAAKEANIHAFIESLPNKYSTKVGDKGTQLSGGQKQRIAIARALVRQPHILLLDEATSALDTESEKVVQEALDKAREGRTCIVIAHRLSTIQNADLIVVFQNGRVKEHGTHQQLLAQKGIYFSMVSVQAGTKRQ", "assay": "Rhodamine-123 permeability across Caco-2 cell monolayers", "details": "Caco-2, pH 7.4"}, "[1]": {"assay": "Pharmacokinetic interaction of Triphala extract with midazolam in rats", "details": "for k el: Kel; for half-life: T1/2, rats"}, "[2]": {"assay": "Pharmacokinetic interaction of Triphala extract with phenacetin in rats", "details": "for k el: Kel; for half-life: T1/2, rats"}, "[3]": {"details": "male, Wistar, rat, plasma, iv, 5 mg/kg, rats, midazolam 5 mg/kg iv, control (midazolam alone)"}, "[4]": {"details": "male, Wistar, rat, plasma, po, 20 mg/kg, rats, midazolam 20 mg/kg oral, control (midazolam alone)"}, "[5]": {"details": "rats, midazolam 20 mg/kg oral, control (midazolam alone)"}, "[6]": {"details": "rats, oral co-administration of Triphala 500 mg/kg, vs control"}, "[7]": {"details": "male, Wistar, rat, plasma, iv, 5 mg/kg, rats, phenacetin 5 mg/kg iv, control (phenacetin alone)"}, "[8]": {"details": "male, Wistar, rat, plasma, po, 30 mg/kg, rats, phenacetin 30 mg/kg oral, control (phenacetin alone)"}, "[9]": {"details": "rats, phenacetin 30 mg/kg oral, control (phenacetin alone)"}}, "data": [{"smiles": "O=c1oc2c(O)c(O)cc3c(=O)oc4c(O)c(O)cc1c4c23", "note": "[Ellagic acid]", "values": [{"measurement": "IC50", "setting": "CYP3A4", "value": 23.2, "unit": "µM"}, {"measurement": "IC50", "setting": "CYP2C9", "value": 27.1, "unit": "µM"}, {"measurement": "IC50", "setting": "CYP2D6", "value": 42.4, "unit": "µM"}, {"measurement": "IC50", "setting": "CYP1A2", "value": 12.6, "unit": "µM"}]}, {"smiles": "O=C(O)c1cc(O)c(O)c(O)c1", "note": "[Gallic acid]", "values": [{"measurement": "IC50", "setting": "CYP2C9", "value": 338, "unit": "µM"}, {"measurement": "IC50", "setting": "CYP2D6", "value": 265, "unit": "µM"}, {"measurement": "IC50", "setting": "CYP1A2", "value": 89.9, "unit": "µM"}]}, {"smiles": "COC(=O)c1ccccc1-c1c2ccc(=N)cc-2oc2cc(N)ccc12", "note": "[Rhodamine 123, rhodamine-123]", "values": [{"measurement": "Papp A→B at 120 min, 2.5 μg/mL", "setting": "P-gp", "value": "64 ± 10", "unit": "×10⁻⁶ cm/s"}, {"measurement": "Papp B→A at 120 min, 2.5 μg/mL", "setting": "P-gp", "value": "190 ± 3", "unit": "×10⁻⁶ cm/s"}, {"measurement": "efflux ratio at 120 min, 2.5 μg/mL", "setting": "P-gp", "value": "3.2 ± 0.5"}]}, {"smiles": "Cc1ncc2n1-c1ccc(Cl)cc1C(c1ccccc1F)=NC2", "note": "[midazolam]", "values": [{"measurement": "AUC", "setting": "[1]; [3]", "value": "670 ± 270", "unit": "ng·h/mL"}, {"measurement": "clearance", "setting": "[1]; male, Wistar, rat, plasma, iv, 5 mg/kg, CLtot, rats, midazolam 5 mg/kg iv, control (midazolam alone)", "value": 83.5, "unit": "mL/min"}, {"measurement": "Cmax", "setting": "[1]; [3]", "value": "910 ± 130", "unit": "ng/mL"}, {"measurement": "k el", "setting": "[1]; [3]", "value": 0.00015, "unit": "s⁻¹"}, {"measurement": "MRT", "setting": "[1]; [3]", "value": "64.8 ± 27.6", "unit": "min"}, {"measurement": "half-life", "setting": "[1]; male, Wistar, rat, plasma, iv, 5 mg/kg, midazolam 5 mg/kg iv, control (midazolam alone)", "value": "58.8 ± 23.4", "unit": "min"}, {"measurement": "AUC", "setting": "[1]; [4]", "value": "1070 ± 70", "unit": "ng·h/mL"}, {"measurement": "Cmax", "setting": "[1]; [4]", "value": "950 ± 130", "unit": "ng/mL"}, {"measurement": "k el", "setting": "[1]; [4]", "value": 0.000194, "unit": "s⁻¹"}, {"measurement": "MRT", "setting": "[1]; [4]", "value": "88.8 ± 14.4", "unit": "min"}, {"measurement": "half-life", "setting": "[1]; male, Wistar, rat, plasma, po, 20 mg/kg, midazolam 20 mg/kg oral, control (midazolam alone)", "value": "63.6 ± 11.4", "unit": "min"}, {"measurement": "Tmax", "setting": "[1]; male, Wistar, rat, plasma, po, 20 mg/kg, Tmax, rats, midazolam 20 mg/kg oral, control (midazolam alone)", "value": "22.8 ± 2.4", "unit": "min"}, {"measurement": "Vdss", "setting": "[1]; rats, midazolam 5 mg/kg iv, control (midazolam alone)", "value": "7.44 ± 4.0", "unit": "L/h"}, {"measurement": "CLtot/F", "setting": "[1]; [5]", "value": "18.89 ± 1.08", "unit": "L/h"}, {"measurement": "Vdss/F", "setting": "[1]; [5]", "value": "28.05 ± 4.9", "unit": "L/h"}, {"measurement": "Increase of bioavailability of midazolam", "setting": "[1]; [6]", "value": "~40.7", "unit": "%"}]}, {"smiles": "CCOc1ccc(NC(C)=O)cc1", "note": "[phenacetin]", "values": [{"measurement": "AUC(0-t)", "setting": "[2]; male, Wistar, rat, plasma, iv, 5 mg/kg, AUC0-t, rats, phenacetin 5 mg/kg iv, control (phenacetin alone)", "value": "1770 ± 190", "unit": "ng·h/mL"}, {"measurement": "clearance", "setting": "[2]; male, Wistar, rat, plasma, iv, 5 mg/kg, CLtot, rats, phenacetin 5 mg/kg iv, control (phenacetin alone)", "value": 48.3, "unit": "mL/min"}, {"measurement": "Cmax", "setting": "[2]; male, Wistar, rat, plasma, iv, 5 mg/kg, Cmax, rats, phenacetin 5 mg/kg iv, control (phenacetin alone)", "value": "3650 ± 390", "unit": "ng/mL"}, {"measurement": "k el", "setting": "[2]; [7]", "value": 0.000728, "unit": "s⁻¹"}, {"measurement": "MRT", "setting": "[2]; [7]", "value": "21 ± 1.2", "unit": "min"}, {"measurement": "half-life", "setting": "[2]; male, Wistar, rat, plasma, iv, 5 mg/kg, phenacetin 5 mg/kg iv, control (phenacetin alone)", "value": "16.2 ± 1.2", "unit": "min"}, {"measurement": "k el", "setting": "[2]; [8]", "value": 0.000206, "unit": "s⁻¹"}, {"measurement": "MRT", "setting": "[2]; [8]", "value": "79.2 ± 12", "unit": "min"}, {"measurement": "half-life", "setting": "[2]; male, Wistar, rat, plasma, po, 30 mg/kg, phenacetin 30 mg/kg oral, control (phenacetin alone)", "value": "58.8 ± 7.2", "unit": "min"}, {"measurement": "Tmax", "setting": "[2]; male, Wistar, rat, plasma, po, 30 mg/kg, Tmax, rats, phenacetin 30 mg/kg oral, control (phenacetin alone)", "value": "19.8 ± 6", "unit": "min"}, {"measurement": "Enhancement of bioavailability (F) of phenacetin compared with control", "setting": "[2]; rats, oral Triphala extract 100 mg/kg", "value": "approximately 1.2 fold"}, {"measurement": "Enhancement of bioavailability (F) of phenacetin compared with control", "setting": "[2]; rats, oral Triphala extract 500 mg/kg", "value": "~1.6", "unit": "fold"}, {"measurement": "Increase of bioavailability of phenacetin", "setting": "[2]; [6]", "value": "about 61.2%"}, {"measurement": "Vdss", "setting": "[2]; rats, phenacetin 5 mg/kg iv, control (phenacetin alone)", "value": "1.02 ± 0.1", "unit": "L/h"}, {"measurement": "Vdss", "setting": "[2]; rats, phenacetin 5 mg/kg iv, oral Triphala extract 100 mg/kg", "value": "1.26 ± 0.2", "unit": "L/h"}, {"measurement": "Vdss", "setting": "[2]; rats, phenacetin 5 mg/kg iv, oral Triphala extract 500 mg/kg", "value": "0.93 ± 0.1", "unit": "L/h"}, {"measurement": "CLtot/F", "setting": "[2]; [9]", "value": "7.74 ± 2.63", "unit": "L/h"}, {"measurement": "Cmax", "setting": "[2]; [9]", "value": "3310 ± 670", "unit": "ng/mL"}, {"measurement": "Vdss/F", "setting": "[2]; [9]", "value": "9.06 ± 1.9", "unit": "L/h"}]}]}
